Here are results for one molecule from patent US10995068B2, “Synthetic sphingolipid-like molecules, drugs, methods of their synthesis and methods of treatment” (The Regents of the University of California, priority 2015, dated 2021).

Data set [1] has as its system cellular oxygen consumption. The experiment in a line: Cellular oxygen consumption. Format: cell-based. The following applies: XF24 Extracellular Flux Analyzer. From the text: Cells treated with oligomycin or rotenone/antimycin A, as expected, compensated for the loss of oxidative phosphorylation by increasing glycolysis, reducing the bound NADH fraction (FIG. 51F). Conversely, the glycolysis inhibitor 2-DG and starvation increased oxidative phosphorylation and the bound to free NADH ratio. SH-BC-893 mimicked the effect of amino acid and glucose starvation, increasing the bound NADH fraction and cellular oxygen consumption (FIGS. 51F and 51G). Cells responded similarly to the anti-inflammatory drug FTY720. Thus, the metabolic changes triggered by SH-BC-893 parallel those seen in cells with restricted access to key metabolic substrates.
Cell analysis: Viability and 4F2hc expression are determined by vital dye exclusion and flow cytometry. Oxygen consumption is measured with an XF24 Extracellular Flux Analyzer (Seahorse Bioscience); values are normalized to total protein. Confocal microscopy is performed on either a Zeiss LSM780 or a Nikon Eclipse Ti; vacuolation was monitored using a Nikon TE2000-S equipped with DIC filters. Anchorage-independent growth of SW620 cells is measured in DMEM-10 containing 0.35% agarose with a 0.5% agarose bottom layer. […] Plates were incubated at 37° C. in a humidified atmosphere containing 5% CO2 and colonies were counted after 12 days.

A further data set has as its system PC3 cells. The experiment in a line: Phosphorylation in intact cells by UPLC-MS/MS, PC3. Format: in vitro ADME, human. The following applies: 10 μM, 16 h incubation, percent of total compound recovered by UPLC-MS/MS. Here is the method:
Mass spectrometric quantification: One million PC3 or 5 million SW620 cells in one well of a 6 well plate are treated with 10 μM FTY720 or 5 for 16 h. Media (100 μl) is removed from the well and combined with 100 μl of acetonitrile. Cells are collected by scraping, pelleted, and re-suspended in 100 μl of HPLC-grade water followed by the addition of 100 μl acetonitrile. Seventy-five nanograms of the compounds not being quantified (FTY720 and FTY720-P for analysis of the phosphorylation of 5, or 5 and 5-P for the analysis of FTY720/FYT720-P) is added to serve as an internal standard to allow correction for loss of compound during sample preparation. […] Insoluble material is again removed by centrifugation and the supernatant analyzed for compound content. Twenty microliters of this de-proteinated sample is analyzed by UPLC-MS/MS (Waters Micromass Quattro Premier XE) equipped with a C18 reversed phase column (Waters) using an acetonitrile (+0.2% acetic acid) gradient elution. […] The cone voltages are 30V for FTY720 and 5, and 20V for FTY720-P and 5-P. A standard curve is generated using pure compounds to allow for quantification; standard curves were linear from 50-1000 ng/ml with an R^2 of 0.98 or greater. […]

For data set [2], the system named is non-transformed and cancer cells. Kind of data set: Cytosolic vacuolation by SH-BC-893. To be noted: both non-transformed and cancer cells. Format: cell-based. From the text:
Certain embodiments of the invention are directed to azacyclic constrained sphingolipid-like molecules to inhibit macropinocytosis and autophagy, consistent with the bioenergetic mechanism. This aspect of the mechanism was unexpected because it was initially believed in that these molecules would only reduce nutrient transporter surface expression. However, considering that Ras activation increases macropinocytosis and autophagy, and the finding that SH-BC-893 was very effective against neoplastic cells with activated Ras led to the hypothesis that azacyclic constrained sphingolipid-like molecules might also affect macropinocytosis and autophagy pathways. […]
Light Microscopy: Brightfield and epifluorescence microscopy were conducted using a Nikon TE2000-S fluorescence microscope; confocal microscopy was performed on a Zeiss LSM780 confocal microscope or Nikon Eclipse Ti spinning disk confocal microscope. […] Co-localization was determined using JACoP plugin in ImageJ software. Macropinocytosis was measured after 16 h incubation in serum-free DMEM. p53−/−; LSL-K-RasG12D MEFs before (LSL) or after (KRasG12D) introduction of Cre were serum starved for 16 h and then treated with macropinocytosis inhibitor 5-(N-ethyl-N-isopropyl) amiloride (EIPA, 75 μM) for 1 h or SH-BC-893 for 6 h. […]

Consider `CCCCCCCCc1ccc([C@H]2CCN[C@@H]2CO)cc1.Cl` [Compound 5, (2S,3R)-2-(hydroxymethyl)-3-(4-octylphenyl)Pyrrolidinium chloride], for which the cellular oxygen consumption result in data set [1] is on record as “increasing”. In addition, the “efficiency of phosphorylation in intact cells” value with PC3 cells is “phosphorylated slightly more efficiently than FTY720”. For the same molecule, the cytosolic vacuolation result in data set [2] is recorded as “induced equally striking cytosolic vacuolation”.
